Legend:
HopZ1a = HopZ1a (Pseudomonas syringae, UniProt Q6VE93); experiment: in vitro autoacetylation assay, […] autoradiography; format: biochemical; settings: 100 nM IP6, [14C]-acetyl-CoA, 50 mM HEPES pH 8.0, 30°C, 1 h; activator
PopP2 = PopP2 (Ralstonia pseudosolanacearum, UniProt Q8Y125); settings: labelled compound; 50 mM HEPES pH 8.0, 30°C, 1 h
PopP2, sequence (Q8Y125 1-488): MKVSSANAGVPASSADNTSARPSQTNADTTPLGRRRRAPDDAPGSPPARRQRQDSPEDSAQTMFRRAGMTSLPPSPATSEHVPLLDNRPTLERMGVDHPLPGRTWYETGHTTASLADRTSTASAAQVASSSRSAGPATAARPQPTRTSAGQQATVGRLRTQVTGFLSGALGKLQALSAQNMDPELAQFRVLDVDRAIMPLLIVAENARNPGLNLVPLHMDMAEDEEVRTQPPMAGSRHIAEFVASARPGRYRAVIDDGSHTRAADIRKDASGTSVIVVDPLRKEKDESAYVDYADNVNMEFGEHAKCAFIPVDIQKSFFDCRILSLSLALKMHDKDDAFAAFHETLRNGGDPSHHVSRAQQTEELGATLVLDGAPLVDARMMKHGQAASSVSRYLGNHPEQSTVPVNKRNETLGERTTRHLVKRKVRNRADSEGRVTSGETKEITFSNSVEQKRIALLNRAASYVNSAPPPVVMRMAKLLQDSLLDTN

HopZ1a, sequence (Q6VE93 whole entry): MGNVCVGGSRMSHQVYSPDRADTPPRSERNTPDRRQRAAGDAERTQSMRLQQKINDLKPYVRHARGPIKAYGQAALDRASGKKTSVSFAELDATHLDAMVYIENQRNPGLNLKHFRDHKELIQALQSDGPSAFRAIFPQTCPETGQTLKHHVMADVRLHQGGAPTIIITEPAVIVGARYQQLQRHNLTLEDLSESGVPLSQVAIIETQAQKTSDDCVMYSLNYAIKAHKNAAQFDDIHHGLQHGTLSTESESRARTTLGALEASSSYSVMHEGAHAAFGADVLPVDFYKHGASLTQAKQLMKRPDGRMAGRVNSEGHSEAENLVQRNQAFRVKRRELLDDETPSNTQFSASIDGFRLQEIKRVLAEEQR

Row | Compound | enhancement of autoacetylation by IP6 (HopZ1a) | in vitro autoacetylation assay, 14C autoradiography (PopP2)
1 | O=P(O)(O)O[C@H]1[C@H](OP(=O)(O)O)[C@@H](OP(=O)(O)O)[C@H](OP(=O)(O)O)[C@@H](OP(=O)(O)O)[C@H]1OP(=O)(O)O [IP6] | c. 40 | –
2 | CC(=O)SCCNC(=O)CCNC(=O)[C@H](O)C(C)(C)COP(=O)(O)OP(=O)(O)OC[C@H]1O[C@@H](n2cnc3c(N)ncnc32)[C@H](O)[C@@H]1OP(=O)(O)O [acetyl-CoA] | – | the mutant PopP2(S447AS449A) is no longer autoacetylated
